For one data set, the target named is T1, estrogen receptor (ER) (Homo sapiens, UniProt P03372).
T1 construct: expressed in transfected cells; host or cells: CHO cells (ribosome-free cytosol)
T1 sequence (P03372 1-595): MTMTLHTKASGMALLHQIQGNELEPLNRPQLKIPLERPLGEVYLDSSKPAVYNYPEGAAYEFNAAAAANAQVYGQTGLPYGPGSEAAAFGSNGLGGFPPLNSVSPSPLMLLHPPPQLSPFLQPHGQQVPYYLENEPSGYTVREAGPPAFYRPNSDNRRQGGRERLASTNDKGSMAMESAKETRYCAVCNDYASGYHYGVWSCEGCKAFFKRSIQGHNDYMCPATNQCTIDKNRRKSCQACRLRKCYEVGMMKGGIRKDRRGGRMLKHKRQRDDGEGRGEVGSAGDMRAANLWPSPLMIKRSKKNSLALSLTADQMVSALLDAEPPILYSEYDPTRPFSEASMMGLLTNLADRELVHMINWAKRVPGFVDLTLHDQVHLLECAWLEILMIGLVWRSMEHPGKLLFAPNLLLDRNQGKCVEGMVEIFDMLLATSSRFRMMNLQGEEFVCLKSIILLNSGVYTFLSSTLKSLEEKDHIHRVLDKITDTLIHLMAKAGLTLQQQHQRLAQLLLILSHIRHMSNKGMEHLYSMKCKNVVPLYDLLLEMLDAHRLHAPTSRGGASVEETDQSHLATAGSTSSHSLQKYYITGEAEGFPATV
Description: Estrogen Receptor Binding/Competition Assay ([3H]17β-estradiol displacement).

The next data set addresses T2, estrogen receptor (Homo sapiens, UniProt P03372).
T2 sequence (P03372 1-595): T1 sequence (P03372 1-595)
Briefly: Transfection Assay. The format is cell-based.

By IC50 is commonly meant the concentration needed to halve the response being measured. Read a high IC50 as weaker potency. The term melting point denotes the temperature, or range, at which the solid turns liquid. As to `Cc1c(-c2ccc(O)cc2)n(C(=O)c2ccc(OCCN3CCCCC3)cc2)c2ccc(O)cc12` [Example No. 2, [5-Hydroxy-2-(4-hydroxy-phenyl)-3-methyl-indol-1-yl][4-(2-piperidin-1-yl-ethoxy)-phenyl]-methanone], the melting point was in the range of 127 to 130 °C. Also, the IC50 at estrogen receptor (ER) worked out at 200 nM. Moreover, the “Transfection Assay % Control” value at estrogen receptor (Concentration 1 × 10^−6 M + 1 nM estradiol) amounted to 13%. Further, the “Transfection Assay % Control” value on estrogen receptor (Concentration 1 × 10^−6 M, compound alone) turned out to be 0%.

`Cc1c(-c2ccc(OCc3ccccc3)cc2)n(C(=O)c2ccc(OCCN3CCCCC3)cc2)c2ccc(OCc3ccccc3)cc12` [compound 1, [5-Benzyloxy-2-(4-benzyloxy-phenyl)-3-methyl-indol-1-yl]-[4-(2-piperidin-1-yl-ethoxy)-phenyl]-methanone] yielded a melting point of 48 to 51 °C.

(Values after patent US6380185B1, “N-substituted benzoyl indoles as estrogenic agents” (American Home Products Corporation, priority 1999, dated 2002).)
